Measurements from patent US12433953B2, “Compositions and methods related to tumor activated antibodies targeting EGFR and effector cell antigens” (Janux Therapeutics, Inc., priority 2021, dated 2025).
pEC50, pIC50: −log10 of the molar value.

What was measured:
[1] = molecular target: EGFR IgG binding to the EGFR antigen; assay: ELISA competitive inhibition of EGFR IgG binding to EGFR antigen; conditions: for pIC50: read-out: IC50 for peptide inhibition of EGFR IgG binding to EGFR antigen, Table 13
EGFR IgG = assay: ELISA binding of peptides to EGFR IgG; conditions: Table 12; antibody concentration for half maximal signal; read-out: EC50 for peptide binding to EGFR IgG
EGFR Fab = assay: ELISA binding of peptides to EGFR Fab; conditions: read-out: EC50 for peptide binding to αEGFR Fab; Table 16

Row | SMILES | pIC50 [1] | pEC50 (EGFR IgG) | pEC50 (EGFR Fab) | inhibiting EGFR IgG binding to the EGFR antigen (in words) ([1]; among peptide-1 to peptide-6)
1 | CC[C@H](C)[C@@H]1NC(=O)[C@H](CC(C)C)NC(=O)[C@H](Cc2c[nH]cn2)NC(=O)[C@H](C)NC(=O)[C@H](CC(=O)O)NC(=O)[C@H](C)NC(=O)[C@@H](NC(=O)[C@H](CO)NC(=O)[C@@H](N)[C@@H](C)O)CSSC[C@@H](C(=O)N[C@@H](CO)C(=O)O)NC(=O)[C@H](CO)NC(=O)[C@@H]2CCCN2C(=O)[C@H](C)NC1=O [Peptide-2] | < 6.52 | 7.08 |  | 
2 | CC(C)[C@@H]1NC(=O)[C@H](CCCNC(=N)N)NC(=O)[C@H](CC(=O)O)NC(=O)[C@H](Cc2c[nH]c3ccccc23)NC(=O)[C@H](CCC(N)=O)NC(=O)[C@@H](NC(=O)[C@@H](N)CC(N)=O)CSSC[C@@H](C(=O)N[C@@H](CO)C(=O)O)NC(=O)[C@H](C)NC(=O)[C@H](Cc2ccc(O)cc2)NC(=O)[C@H]([C@@H](C)O)NC(=O)[C@H](Cc2c[nH]cn2)NC(=O)[C@H](CCC(=O)O)NC1=O [Peptide-3] | < 6.52 | 6.38 |  | 
3 | CC(C)[C@@H]1NC(=O)[C@H](Cc2c[nH]c3ccccc23)NC(=O)[C@H]([C@@H](C)O)NC(=O)[C@H](CC(N)=O)NC(=O)[C@H](CC(=O)O)NC(=O)[C@H](CCC(N)=O)NC(=O)CNC(=O)[C@@H](NC(=O)[C@@H](N)Cc2ccc(O)cc2)CSSC[C@@H](C(=O)N[C@@H](Cc2ccccc2)C(=O)O)NC(=O)CNC(=O)[C@H](CCC(=O)O)NC(=O)[C@H](CCCNC(=N)N)NC1=O [Peptide-6] |  | 9.52 | 6.34 | most effective at inhibiting EGFR IgG binding to the EGFR antigen
4 | CSCC[C@@H]1NC(=O)[C@H](CC(C)C)NC(=O)[C@H](CO)NC(=O)[C@H](CCCNC(=N)N)NC(=O)[C@@H](NC(=O)[C@H](Cc2c[nH]c3ccccc23)NC(=O)[C@@H](N)CC(=O)O)CSSC[C@@H](C(=O)N2CCC[C@H]2C(=O)O)NC(=O)[C@H](CC(C)C)NC(=O)[C@H](CC(=O)O)NC(=O)[C@H]([C@@H](C)O)NC(=O)[C@H](Cc2ccc(O)cc2)NC(=O)[C@H](CO)NC1=O [Peptide-1] | < 6.52 | 7.28 |  | 

More lines, main results first:

Row | pIC50 [1] | pEC50 (EGFR IgG) | SMILES | pEC50 (EGFR Fab) | inhibiting EGFR IgG binding to the EGFR antigen (in words) ([1]; among peptide-1 to peptide-6)
5 | < 6.52 |  | CSCC[C@@H]1NC(=O)[C@H](Cc2c[nH]cn2)NC(=O)[C@H](CO)NC(=O)CNC(=O)[C@H](CC(=O)O)NC(=O)[C@H](Cc2c[nH]cn2)NC(=O)[C@@H](NC(=O)[C@H](CO)NC(=O)[C@@H](NC(=O)[C@@H](N)Cc2c[nH]c3ccccc23)C(C)C)CSSC[C@@H](C(=O)N[C@@H](Cc2ccccc2)C(=O)N[C@@H](Cc2c[nH]cn2)C(=O)O)NC(=O)[C@H]([C@@H](C)O)NC1=O [Peptide-4] |  | 
6 | < 6.52 | 8.70 | CSCC[C@H](N)C(=O)N[C@@H](CC(N)=O)C(=O)N[C@H]1CSSC[C@@H](C(=O)N[C@@H](CC(C)C)C(=O)N[C@H](C(=O)O)C(C)C)NC(=O)[C@H](Cc2ccc(O)cc2)NC(=O)[C@H](CCC(=O)O)NC(=O)[C@H](C(C)C)NC(=O)[C@H](Cc2c[nH]c3ccccc23)NC(=O)[C@H](CC(C)C)NC(=O)[C@H](CCCNC(=N)N)NC(=O)[C@H](CC(N)=O)NC(=O)[C@H](CC(C)C)NC1=O [Peptide-5] |  | 
